From patent publication US4189349A, “α,δ-Diaminoacid and its lactam” (Rhone-Poulenc Industries, priority 1977, dated 1980)
≈ marks a conversion by molar mass, not a printed value. Like-named read-outs stand apart in the source and are kept apart here.

Key:
Rhizopus nigricans = experiment: Anti-fungal activity in vitro by dilution method; format: cell-based; details: Rhizopus stolonifer, 95 to 100% inhibition, read-out: Minimum active concentration (AC 95-100)
Procedure: (§1) Anti-fungal activity in vitro: The anti-fungal activity of 32232 RP and of 35391 RP towards a certain number of fungi has been determined by one of the dilution methods usually employed for this purpose. For each fungus, the smallest concentration of active substance which, under defined conditions, causes 95 to 100% inhibition of the fungus (AC 95-100) was determined. The results of the various determinations are summarised in Table III below, where the minimum active concentrations are expressed in micrograms of substance per cc. of test medium.

Aspergillus fumigatus = experiment: Anti-fungal activity in vitro by dilution method; format: cell-based; details: 95 to 100% inhibition, read-out: Minimum active concentration (AC 95-100)
Procedure: as §1

Microsporum canis = experiment: Anti-fungal activity in vitro by dilution method; format: cell-based; details: 95 to 100% inhibition, read-out: Minimum active concentration (AC 95-100)
Procedure: as §1

Hansenula anomala = experiment: Anti-fungal activity in vitro by dilution method; format: cell-based; details: 95 to 100% inhibition, read-out: Minimum active concentration (AC 95-100)
Procedure: as §1

Botrytis cinerea = experiment: Anti-fungal activity in vitro by dilution method; format: cell-based; details: 95 to 100% inhibition, read-out: Minimum active concentration (AC 95-100)
Procedure: as §1

Saccharomyces cerevisiae = experiment: Anti-fungal activity in vitro by dilution method; format: cell-based; details: 95 to 100% inhibition, read-out: Minimum active concentration (AC 95-100)
Procedure: as §1

Penicillium digitatum = experiment: Anti-fungal activity in vitro by dilution method; format: cell-based; details: 95 to 100% inhibition, read-out: Minimum active concentration (AC 95-100)
Procedure: as §1

Candida krusei IP 208 = experiment: Anti-fungal activity in vitro by dilution method; format: cell-based; details: Pichia kudriavzevii, IP208, 95 to 100% inhibition, read-out: Minimum active concentration (AC 95-100)
Procedure: as §1

Candida albicans Hi 7 = experiment: Anti-fungal activity in vitro by dilution method; format: cell-based; details: HI7, 95 to 100% inhibition, read-out: Minimum active concentration (AC 95-100)
Procedure: as §1

Candida albicans IP 200 = experiment: Anti-fungal activity in vitro by dilution method; format: cell-based; details: IP200, 95 to 100% inhibition, read-out: Minimum active concentration (AC 95-100)
Procedure: as §1

Mucor corymbifer = experiment: Anti-fungal activity in vitro by dilution method; format: cell-based; details: Lichtheimia corymbifera, 95 to 100% inhibition, read-out: Minimum active concentration (AC 95-100)
Procedure: as §1

[1] = test system: Saccharomyces ellipsoideus; experiment: Anti-fungal activity in vitro by dilution method; format: cell-based; details: 95 to 100% inhibition, read-out: Minimum active concentration (AC 95-100)
Procedure: as §1

[2] = test system: Saccharomyces pastorianus; experiment: Anti-fungal activity in vitro by dilution method; format: cell-based; details: 95 to 100% inhibition, read-out: Minimum active concentration (AC 95-100)
Procedure: as §1

Blastomyces dermatitidis = experiment: Anti-fungal activity in vitro by dilution method; format: cell-based; details: 95 to 100% inhibition, read-out: Minimum active concentration (AC 95-100)
Procedure: as §1

[3] = test system: Trichophyton mentagrophytes; experiment: Anti-fungal activity in vitro by dilution method; format: cell-based; details: 95 to 100% inhibition, read-out: Minimum active concentration (AC 95-100)
Procedure: as §1

Aspergillus niger = experiment: Anti-fungal activity in vitro by dilution method; format: cell-based; details: 95 to 100% inhibition, read-out: Minimum active concentration (AC 95-100)
Procedure: as §1

Fusarium oxysporum = experiment: Anti-fungal activity in vitro by dilution method; format: cell-based; details: 95 to 100% inhibition, read-out: Minimum active concentration (AC 95-100)
Procedure: as §1

[4] = Anti-fungal activity in vitro by dilution method; format: cell-based; details: Trichophyton rubrum; 95 to 100% inhibition; Microsporum rubrum; read-out: Minimum active concentration (AC 95-100)
Procedure: as §1

Candida albicans Pa 1 = experiment: Anti-fungal activity in vitro by dilution method; format: cell-based; details: PA1, 95 to 100% inhibition, read-out: Minimum active concentration (AC 95-100)
Procedure: as §1

Epidermophyton floccosum = experiment: Anti-fungal activity in vitro by dilution method; format: cell-based; details: 95 to 100% inhibition, read-out: Minimum active concentration (AC 95-100)
Procedure: as §1

Toxicity in mice = details: mouse, in vivo; mice, oral; read-out: 50% lethal dose (LD50)
Candida albicans = experiment: Anti-fungal activity in vivo, generalised candidosis in mice; design: species or system Candida albicans in mice; details: orally or subcutaneously, between 25 mg/kg and 200 mg/kg per day for 4 consecutive days
[5] = Potentiometric titration of an aqueous solution; format: physicochemical; details: water
From the text: The potentiometric equivalent is about 390.
The potentiometric equivalent is about 400.
The potentiometric equivalent is about 370.

bacteria = experiment: Bacteriostatic activity towards bacteria; format: cell-based
[6] = Solubility (French Pharmacopoeia terms / in water); format: physicochemical
Procedure: 32232 RP and 35391 RP are of particular interest because of their activity on fungi and yeasts. 32232 RP, in the form of the internal salt, is characterised by the following physical properties:
Solubility: 35391 RP is soluble in water at the rate of about 10 mg/cc.

mice = experiment: Toxicity in mice; details: mouse, in vivo, 1000 mg/kg
[7] = 0.1M hydrochloric acid, read-out: apparent pKa of basic group

**Q.** For `Nc1ncnc2c1ncn2C1OC(CC(N)CCC(N)C(=O)O)C(O)C1O` (stereo not drawn) [32232 RP], which MIC (Rhizopus nigricans) is on record?
**A.** > 500 µg/mL

**Q.** What about the MIC (Aspergillus fumigatus) of the same compound?
**A.** > 500 µg/mL

**Q.** And the MIC (Microsporum canis)?
**A.** > 500 µg/mL

**Q.** What about the MIC (Hansenula anomala) of the same compound?
**A.** 2 µg/mL (≈ 5.24 µM)

**Q.** And the MIC (Botrytis cinerea)?
**A.** > 500 µg/mL

**Q.** What about the MIC (Saccharomyces cerevisiae) of the same compound?
**A.** 0.3 µg/mL (≈ 0.787 µM)

**Q.** What about the MIC (Penicillium digitatum) of the same compound?
**A.** 15 µg/mL (≈ 39.3 µM)

**Q.** And the MIC (Candida krusei IP 208)?
**A.** 4 µg/mL (≈ 10.5 µM)

**Q.** What about the MIC (Candida albicans Hi 7) of the same compound?
**A.** 5 µg/mL (≈ 13.1 µM)

**Q.** And the MIC (Candida albicans IP 200)?
**A.** 5 µg/mL (≈ 13.1 µM)

**Q.** What about the MIC (Mucor corymbifer) of the same compound?
**A.** > 500 µg/mL

**Q.** What about the MIC [1] of the same compound?
**A.** 0.9 µg/mL (≈ 2.36 µM)

**Q.** What about the MIC [2] of the same compound?
**A.** 0.3 µg/mL (≈ 0.787 µM)

**Q.** What about the MIC (Blastomyces dermatitidis) of the same compound?
**A.** 5 µg/mL (≈ 13.1 µM)

**Q.** What about the MIC [3] of the same compound?
**A.** > 500 µg/mL

**Q.** And the MIC (Aspergillus niger)?
**A.** > 500 µg/mL

**Q.** And the MIC (Fusarium oxysporum)?
**A.** > 500 µg/mL

**Q.** And the MIC [4]?
**A.** > 500 µg/mL

**Q.** What about the MIC (Candida albicans Pa 1) of the same compound?
**A.** 3 µg/mL (≈ 7.87 µM)

**Q.** What about the MIC (Epidermophyton floccosum) of the same compound?
**A.** > 500 µg/mL

**Q.** What about the LD50 (Toxicity in mice) of the same compound?
**A.** > 1000 mg/kg

**Q.** And the “Anti-fungal activity in vivo against generalised candidosis” value (Candida albicans)?
**A.** particularly active

**Q.** What about the pKa [5, 7] of the same compound?
**A.** 8.1

**Q.** What about the pKa ([5]; 0.1M sodium hydroxide, read-out: apparent pKa of weak acid group) of the same compound?
**A.** 9.8

**Q.** And the “bacteriostatic activity towards bacteria” value (bacteria)?
**A.** generally devoid of bacteriostatic activity

**Q.** And the Solubility ([6]; in acetone, internal salt, French Pharmacopoeia)?
**A.** virtually insoluble

**Q.** What about the Solubility ([6]; in dimethylformamide, internal salt, French Pharmacopoeia) of the same compound?
**A.** very slightly soluble

**Q.** What about the Solubility ([6]; in methanol, internal salt, French Pharmacopoeia) of the same compound?
**A.** very slightly soluble

**Q.** And the Solubility ([6]; in water, internal salt, French Pharmacopoeia)?
**A.** easily soluble

**Q.** For `Nc1ncnc2c1ncn2C1OC(CC2CCC(N)C(=O)N2)C(O)C1O` (stereo not drawn) [35391 RP], which MIC (Rhizopus nigricans) is on record?
**A.** > 500 µg/mL

**Q.** What about the MIC (Aspergillus fumigatus) of the same compound?
**A.** > 500 µg/mL

**Q.** And the MIC (Microsporum canis)?
**A.** 300 µg/mL (≈ 826 µM)

**Q.** And the MIC (Hansenula anomala)?
**A.** 35 µg/mL (≈ 96.3 µM)

**Q.** And the MIC (Botrytis cinerea)?
**A.** > 500 µg/mL

**Q.** What about the MIC (Saccharomyces cerevisiae) of the same compound?
**A.** 10 µg/mL (≈ 27.5 µM)

**Q.** And the MIC (Penicillium digitatum)?
**A.** 25 µg/mL (≈ 68.8 µM)

**Q.** What about the MIC (Candida krusei IP 208) of the same compound?
**A.** 60 µg/mL (≈ 165 µM)

**Q.** And the MIC (Candida albicans Hi 7)?
**A.** 75 µg/mL (≈ 206 µM)

**Q.** What about the MIC (Candida albicans IP 200) of the same compound?
**A.** 70 µg/mL (≈ 193 µM)

**Q.** And the MIC (Mucor corymbifer)?
**A.** > 500 µg/mL

**Q.** And the MIC [1]?
**A.** 15 µg/mL (≈ 41.3 µM)

**Q.** What about the MIC [2] of the same compound?
**A.** 7 µg/mL (≈ 19.3 µM)

**Q.** And the MIC (Blastomyces dermatitidis)?
**A.** 60 µg/mL (≈ 165 µM)

**Q.** What about the MIC [3] of the same compound?
**A.** 350 µg/mL (≈ 963 µM)

**Q.** And the MIC (Aspergillus niger)?
**A.** > 500 µg/mL

**Q.** And the MIC (Fusarium oxysporum)?
**A.** > 500 µg/mL

**Q.** And the MIC [4]?
**A.** 300 µg/mL (≈ 826 µM)

**Q.** What about the MIC (Candida albicans Pa 1) of the same compound?
**A.** 40 µg/mL (≈ 110 µM)

**Q.** And the MIC (Epidermophyton floccosum)?
**A.** 250 µg/mL (≈ 688 µM)

**Q.** What about the Toxicity (mice) of the same compound?
**A.** non-toxic

**Q.** And the “Anti-fungal activity in vivo against generalised candidosis” value (Candida albicans)?
**A.** particularly active

**Q.** What about the pKa [5, 7] of the same compound?
**A.** 7.7

**Q.** What about the “bacteriostatic activity towards bacteria” value (bacteria) of the same compound?
**A.** generally devoid of bacteriostatic activity

**Q.** What about the Solubility ([6]; in water, read-out: Solubility) of the same compound?
**A.** ~10000 µg/mL (≈ 27500 µM)
